From patent publication US9695155B2, “Herbicidal substituted pyrimidinyloxy benzene compounds” (E. I. DU PONT DE NEMOURS AND COMPANY, priority 2013, dated 2017)

Tests used:
barnyardgrass [1] = assay: Test A preemergence; type: in vivo, Echinochloa crus-galli
In short: (§1)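 Compounds in non-phytotoxic solvent with surfactant applied as soil spray preemergence, or postemergence to plants 2-10 cm at one- to two-leaf stage, in loam/sand. After approximately 10 days in greenhouse, injury rated visually versus untreated controls, 0 (no effect) to 100 (complete control).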

large (Lg) crabgrass [2] = assay: Test A preemergence; type: in vivo, Digitaria sanguinalis
In short: as §1

giant foxtail [3] = assay: Test A preemergence; type: in vivo, Setaria faberii
In short: as §1

morningglory [4] = assay: Test A preemergence; type: in vivo, Ipomoea spp.
In short: as §1

pigweed [5] = assay: Test A preemergence; type: in vivo, Amaranthus retroflexus
In short: as §1

velvetleaf [6] = assay: Test A preemergence; type: in vivo, Abutilon theophrasti
In short: as §1

wheat [7] = assay: Test A preemergence; type: in vivo, Triticum aestivum
In short: as §1

corn [8] = assay: Test A preemergence; type: in vivo, Zea mays
In short: as §1

barnyardgrass [9] = assay: Test A postemergence; type: in vivo, Echinochloa crus-galli; conditions: 0 to 100 scale where 0 is no effect and 100 is complete control
In short: as §1

large (Lg) crabgrass [10] = assay: Test A postemergence; type: in vivo, Digitaria sanguinalis; conditions: 0 to 100 scale where 0 is no effect and 100 is complete control
In short: as §1

giant foxtail [11] = assay: Test A postemergence; type: in vivo, Setaria faberii; conditions: 0 to 100 scale where 0 is no effect and 100 is complete control
In short: as §1

morningglory [12] = assay: Test A postemergence; type: in vivo, Ipomoea spp.; conditions: 0 to 100 scale where 0 is no effect and 100 is complete control
In short: as §1

pigweed [13] = assay: Test A postemergence; type: in vivo, Amaranthus retroflexus; conditions: 0 to 100 scale where 0 is no effect and 100 is complete control
In short: as §1

velvetleaf [14] = assay: Test A postemergence; type: in vivo, Abutilon theophrasti; conditions: 0 to 100 scale where 0 is no effect and 100 is complete control
In short: as §1

wheat [15] = assay: Test A postemergence; type: in vivo, Triticum aestivum; conditions: 0 to 100 scale where 0 is no effect and 100 is complete control
In short: as §1

corn [16] = assay: Test A postemergence; type: in vivo, Zea mays; conditions: 0 to 100 scale where 0 is no effect and 100 is complete control
In short: as §1

rice [17] = assay: Test B flooded paddy test; type: in vivo, Oryza sativa; conditions: Flood, 250 g ai/ha; 0 to 100 scale where 0 is no effect and 100 is complete control
In short: (§2)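 Post-emergence paddy-water application at the 2-leaf stage, with 3 cm flood kept for the whole test. Response was judged visually relative to controls after 13 to 15 greenhouse days, 0 indicating no effect and 100 complete control.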

sedge, umbrella [18] = assay: Test B flooded paddy test; type: in vivo, Cyperus difformis; conditions: Flood, 250 g ai/ha; 0 to 100 scale where 0 is no effect and 100 is complete control
In short: as §2

Heteranthera limosa = assay: Test B flooded paddy test; type: in vivo; conditions: Flood, 250 g ai/ha; 0 to 100 scale where 0 is no effect and 100 is complete control
In short: as §2

barnyardgrass [19] = assay: Test B flooded paddy test; type: in vivo, Echinochloa crus-galli; conditions: Flood, 250 g ai/ha; 0 to 100 scale where 0 is no effect and 100 is complete control
In short: as §2

rice [20] = assay: Test C flooded paddy test; type: in vivo, Oryza sativa; conditions: Flood, scale 0 to 100 (0 no effect, 100 complete control), 13 to 15 days
Excerpt: (§3) At time of treatment, test pots were flooded to 3 cm above the soil surface, treated by application of test compounds directly to the paddy water, and then maintained at that water depth for the duration of the test. Treated plants and controls were maintained in a greenhouse for 13 to 15 days, after which time all species were compared to controls and visually evaluated. […] A dash (-) response means no test result.

sedge, umbrella [21] = assay: Test C flooded paddy test; type: in vivo, Cyperus difformis; conditions: Flood, scale 0 to 100 (0 no effect, 100 complete control), 13 to 15 days
Excerpt: as §3

ducksalad = assay: Test C flooded paddy test; type: in vivo, Heteranthera limosa; conditions: Flood, scale 0 to 100 (0 no effect, 100 complete control), 13 to 15 days
Excerpt: as §3

barnyardgrass [22] = assay: Test C flooded paddy test; type: in vivo, Echinochloa crus-galli; conditions: Flood, scale 0 to 100 (0 no effect, 100 complete control), 13 to 15 days
In short: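 Visual injury ratings against untreated controls, taken 13 to 15 days after compound was added to paddy water standing 3 cm above the soil.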

[23] = 500 g ai/ha, 0 to 100 scale where 0 is no effect and 100 is complete control

FC(F)c1cccc(Oc2ncc(Br)cn2)c1-n1cc(Br)cn1 [Compound 231]
Barnyardgrass plant response rating (0 to 100 scale, 0 is no effect, 100 is complete control) (barnyardgrass [1]; 125 g ai/ha): 20
Barnyardgrass plant response rating (barnyardgrass [1]; [23]): 100
Crabgrass, Large plant response rating (0 to 100 scale) (large (Lg) crabgrass [2]; 125 g ai/ha): 90
Crabgrass, Large plant response rating (large (Lg) crabgrass [2]; [23]): 100
Foxtail, Giant plant response rating (0 to 100 scale) (giant foxtail [3]; 125 g ai/ha): 90
Foxtail, Giant plant response rating (giant foxtail [3]; [23]): 100
Morningglory plant response rating (0 to 100 scale) (morningglory [4]; 125 g ai/ha): 0
Morningglory plant response rating (morningglory [4]; [23]): 30
Pigweed plant response rating (0 to 100 scale) (pigweed [5]; 125 g ai/ha): 90
Pigweed plant response rating (pigweed [5]; [23]): 100
Velvetleaf plant response rating (0 to 100 scale) (velvetleaf [6]; 125 g ai/ha): 0
Velvetleaf plant response rating (velvetleaf [6]; [23]): 100
Wheat plant response rating (0 to 100 scale) (wheat [7]; 125 g ai/ha): 0
Wheat plant response rating (wheat [7]; [23]): 20
Corn plant response rating (0 to 100 scale) (corn [8]; 125 g ai/ha): 0
Corn plant response rating (corn [8]; [23]): 20
Barnyardgrass plant response rating (barnyardgrass [9]; 125 g ai/ha): 40
Plant response rating, Barnyardgrass (barnyardgrass [9]; 500 g ai/ha): 90
Crabgrass, Large plant response rating (large (Lg) crabgrass [10]; 125 g ai/ha): 70
Plant response rating, Crabgrass, Large (large (Lg) crabgrass [10]; 500 g ai/ha): 90
Foxtail, Giant plant response rating (giant foxtail [11]; 125 g ai/ha): 70
Plant response rating, Foxtail, Giant (giant foxtail [11]; 500 g ai/ha): 90
Morningglory plant response rating (morningglory [12]; 125 g ai/ha): 30
Plant response rating, Morningglory (morningglory [12]; 500 g ai/ha): 90
Pigweed plant response rating (pigweed [13]; 125 g ai/ha): 100
Plant response rating, Pigweed (pigweed [13]; 500 g ai/ha): 100
Velvetleaf plant response rating (velvetleaf [14]; 125 g ai/ha): 100
Plant response rating, Velvetleaf (velvetleaf [14]; 500 g ai/ha): 100
Wheat plant response rating (wheat [15]; 125 g ai/ha): 20
Plant response rating, Wheat (wheat [15]; 500 g ai/ha): 50
Corn plant response rating (corn [16]; 125 g ai/ha): 20
Plant response rating, Corn (corn [16]; 500 g ai/ha): 90
Plant response rating, Rice (rice [17]): 30
Plant response rating, Sedge, Umbrella (sedge, umbrella [18]): 80
Plant response rating, Ducksalad (Heteranthera limosa): 80
Plant response rating, Barnyardgrass (barnyardgrass [19]): 20
Plant response rating, Rice (rice [20]; 31 g ai/ha): 0
Plant response rating, Rice (rice [20]; 62 g ai/ha): 0
Plant response rating, Rice (rice [20]; 125 g ai/ha): 0
Plant response rating, Rice (rice [20]; 250 g ai/ha): 0
Plant response rating, Sedge, Umbrella (sedge, umbrella [21]; 31 g ai/ha): 0
Plant response rating, Sedge, Umbrella (sedge, umbrella [21]; 62 g ai/ha): 50
Plant response rating, Sedge, Umbrella (sedge, umbrella [21]; 125 g ai/ha): 70
Plant response rating, Sedge, Umbrella (sedge, umbrella [21]; 250 g ai/ha): 80
Plant response rating, Ducksalad (ducksalad; 31 g ai/ha): 0
Plant response rating, Ducksalad (ducksalad; 62 g ai/ha): 30
Plant response rating, Ducksalad (ducksalad; 125 g ai/ha): 70
Plant response rating, Ducksalad (ducksalad; 250 g ai/ha): 75
Plant response rating, Barnyardgrass (barnyardgrass [22]; 31 g ai/ha): 0
Plant response rating, Barnyardgrass (barnyardgrass [22]; 62 g ai/ha): 0
Plant response rating, Barnyardgrass (barnyardgrass [22]; 125 g ai/ha): 0
Plant response rating, Barnyardgrass (barnyardgrass [22]; 250 g ai/ha): 0
